Assay results from the NIST ThermoML archive (doi:10.1021/acs.jced.8b00812).
Numbers after ± are expanded uncertainties.

Details: Liquid; for viscosity: Capillary tube (Ostwald / Ubbelohde) method; for mass density: Vibrating tube method

## CCCCO [butan-1-ol]
298.12 K, 2010 kPa
  viscosity: 2.608 ± 0.027 mPa·s
  mass density: 806.8 ± 0.8 kg/m3
298.12 K, 3910 kPa
  viscosity: 2.657 ± 0.028 mPa·s
  mass density: 808.2 ± 0.8 kg/m3
298.12 K, 6020 kPa
  viscosity: 2.708 ± 0.028 mPa·s
  mass density: 809.8 ± 0.8 kg/m3
298.12 K, 8030 kPa
  viscosity: 2.752 ± 0.029 mPa·s
  mass density: 811.2 ± 0.8 kg/m3
298.12 K, 9910 kPa
  viscosity: 2.797 ± 0.029 mPa·s
  mass density: 812.5 ± 0.8 kg/m3
298.12 K, 16020 kPa
  viscosity: 2.94 ± 0.031 mPa·s
  mass density: 816.6 ± 0.8 kg/m3
298.12 K, 19030 kPa
  viscosity: 3.018 ± 0.031 mPa·s
  mass density: 818.5 ± 0.8 kg/m3
298.12 K, 22000 kPa
  viscosity: 3.092 ± 0.032 mPa·s
  mass density: 820.4 ± 0.9 kg/m3
298.12 K, 25020 kPa
  viscosity: 3.166 ± 0.033 mPa·s
  mass density: 822.3 ± 0.9 kg/m3
298.12 K, 28000 kPa
  viscosity: 3.237 ± 0.034 mPa·s
  mass density: 824 ± 0.9 kg/m3
298.12 K, 30010 kPa
  viscosity: 3.287 ± 0.034 mPa·s
  mass density: 825.1 ± 0.9 kg/m3
298.13 K, 13010 kPa
  viscosity: 2.867 ± 0.03 mPa·s
  mass density: 814.6 ± 0.8 kg/m3
303.15 K, 2010 kPa
  viscosity: 2.351 ± 0.025 mPa·s
  mass density: 803.3 ± 0.8 kg/m3
303.15 K, 4000 kPa
  viscosity: 2.393 ± 0.025 mPa·s
  mass density: 804.8 ± 0.8 kg/m3
303.15 K, 5980 kPa
  viscosity: 2.436 ± 0.025 mPa·s
  mass density: 806.3 ± 0.8 kg/m3
303.15 K, 8010 kPa
  viscosity: 2.479 ± 0.026 mPa·s
  mass density: 807.8 ± 0.8 kg/m3
303.15 K, 9990 kPa
  viscosity: 2.522 ± 0.026 mPa·s
  mass density: 809.2 ± 0.8 kg/m3
303.15 K, 12990 kPa
  viscosity: 2.586 ± 0.027 mPa·s
  mass density: 811.3 ± 0.8 kg/m3
303.15 K, 15990 kPa
  viscosity: 2.65 ± 0.028 mPa·s
  mass density: 813.3 ± 0.8 kg/m3
303.15 K, 22010 kPa
  viscosity: 2.779 ± 0.029 mPa·s
  mass density: 817.3 ± 0.9 kg/m3
303.15 K, 25010 kPa
  viscosity: 2.843 ± 0.03 mPa·s
  mass density: 819.1 ± 0.9 kg/m3
303.15 K, 27970 kPa
  viscosity: 2.912 ± 0.03 mPa·s
  mass density: 820.9 ± 0.9 kg/m3
303.15 K, 29990 kPa
  viscosity: 2.957 ± 0.031 mPa·s
  mass density: 822.1 ± 0.9 kg/m3
303.16 K, 19000 kPa
  viscosity: 2.714 ± 0.028 mPa·s
  mass density: 815.3 ± 0.8 kg/m3
313.15 K, 10020 kPa
  viscosity: 1.969 ± 0.021 mPa·s
  mass density: 801.8 ± 0.8 kg/m3
313.15 K, 12980 kPa
  viscosity: 2.019 ± 0.021 mPa·s
  mass density: 803.9 ± 0.8 kg/m3
313.15 K, 22020 kPa
  viscosity: 2.182 ± 0.023 mPa·s
  mass density: 810.2 ± 0.8 kg/m3
313.15 K, 25010 kPa
  viscosity: 2.237 ± 0.023 mPa·s
  mass density: 812.2 ± 0.9 kg/m3
313.16 K, 1990 kPa
  viscosity: 1.832 ± 0.019 mPa·s
  mass density: 795.5 ± 0.8 kg/m3
313.16 K, 3980 kPa
  viscosity: 1.868 ± 0.02 mPa·s
  mass density: 797.1 ± 0.8 kg/m3
313.16 K, 5990 kPa
  viscosity: 1.902 ± 0.02 mPa·s
  mass density: 798.7 ± 0.8 kg/m3
313.16 K, 7980 kPa
  viscosity: 1.935 ± 0.02 mPa·s
  mass density: 800.2 ± 0.8 kg/m3
313.16 K, 15980 kPa
  viscosity: 2.073 ± 0.022 mPa·s
  mass density: 806.1 ± 0.8 kg/m3
313.16 K, 19010 kPa
  viscosity: 2.125 ± 0.022 mPa·s
  mass density: 808.2 ± 0.8 kg/m3
313.16 K, 27990 kPa
  viscosity: 2.292 ± 0.024 mPa·s
  mass density: 814.1 ± 0.9 kg/m3
313.16 K, 29990 kPa
  viscosity: 2.329 ± 0.024 mPa·s
  mass density: 815.3 ± 0.9 kg/m3
323.14 K, 2000 kPa
  viscosity: 1.421 ± 0.015 mPa·s
  mass density: 787.9 ± 0.8 kg/m3
323.14 K, 3920 kPa
  viscosity: 1.446 ± 0.015 mPa·s
  mass density: 789.6 ± 0.8 kg/m3
323.14 K, 6030 kPa
  viscosity: 1.473 ± 0.015 mPa·s
  mass density: 791.3 ± 0.8 kg/m3
323.14 K, 8000 kPa
  viscosity: 1.499 ± 0.016 mPa·s
  mass density: 792.9 ± 0.8 kg/m3
323.14 K, 10020 kPa
  viscosity: 1.525 ± 0.016 mPa·s
  mass density: 794.5 ± 0.8 kg/m3
323.14 K, 13040 kPa
  viscosity: 1.565 ± 0.017 mPa·s
  mass density: 796.9 ± 0.8 kg/m3
323.14 K, 16050 kPa
  viscosity: 1.603 ± 0.017 mPa·s
  mass density: 799.2 ± 0.8 kg/m3
323.14 K, 19000 kPa
  viscosity: 1.646 ± 0.017 mPa·s
  mass density: 801.3 ± 0.8 kg/m3
323.14 K, 21990 kPa
  viscosity: 1.684 ± 0.018 mPa·s
  mass density: 803.4 ± 0.8 kg/m3
323.14 K, 24970 kPa
  viscosity: 1.723 ± 0.018 mPa·s
  mass density: 805.5 ± 0.9 kg/m3
323.14 K, 28000 kPa
  viscosity: 1.759 ± 0.018 mPa·s
  mass density: 807.5 ± 0.9 kg/m3
323.14 K, 29970 kPa
  viscosity: 1.785 ± 0.019 mPa·s
  mass density: 808.8 ± 0.9 kg/m3

## CCCCCCCO [heptan-1-ol]
298.15 K, 2000 kPa
  viscosity: 5.971 ± 0.069 mPa·s
  mass density: 820.2 ± 0.9 kg/m3
298.15 K, 4020 kPa
  viscosity: 6.1 ± 0.071 mPa·s
  mass density: 821.4 ± 0.9 kg/m3
298.15 K, 6010 kPa
  viscosity: 6.229 ± 0.072 mPa·s
  mass density: 822.8 ± 0.9 kg/m3
298.15 K, 8000 kPa
  viscosity: 6.364 ± 0.073 mPa·s
  mass density: 824 ± 0.9 kg/m3
298.15 K, 10000 kPa
  viscosity: 6.484 ± 0.075 mPa·s
  mass density: 825.3 ± 0.9 kg/m3
298.15 K, 13000 kPa
  viscosity: 6.686 ± 0.077 mPa·s
  mass density: 827.1 ± 0.9 kg/m3
298.15 K, 16000 kPa
  viscosity: 6.881 ± 0.079 mPa·s
  mass density: 828.9 ± 0.9 kg/m3
298.15 K, 19000 kPa
  viscosity: 7.084 ± 0.081 mPa·s
  mass density: 830.7 ± 0.9 kg/m3
298.15 K, 22000 kPa
  viscosity: 7.293 ± 0.084 mPa·s
  mass density: 832.5 ± 0.9 kg/m3
298.15 K, 25000 kPa
  viscosity: 7.516 ± 0.086 mPa·s
  mass density: 834.2 ± 0.9 kg/m3
298.15 K, 28000 kPa
  viscosity: 7.72 ± 0.088 mPa·s
  mass density: 835.9 ± 0.9 kg/m3
298.15 K, 29990 kPa
  viscosity: 7.864 ± 0.09 mPa·s
  mass density: 836.9 ± 0.9 kg/m3
303.16 K, 2030 kPa
  viscosity: 5.186 ± 0.06 mPa·s
  mass density: 816.5 ± 0.9 kg/m3
303.16 K, 4030 kPa
  viscosity: 5.302 ± 0.062 mPa·s
  mass density: 817.9 ± 0.9 kg/m3
303.16 K, 6040 kPa
  viscosity: 5.42 ± 0.063 mPa·s
  mass density: 819.3 ± 0.9 kg/m3
303.16 K, 7980 kPa
  viscosity: 5.534 ± 0.064 mPa·s
  mass density: 820.5 ± 0.9 kg/m3
303.16 K, 9990 kPa
  viscosity: 5.651 ± 0.066 mPa·s
  mass density: 821.8 ± 0.9 kg/m3
303.16 K, 12990 kPa
  viscosity: 5.826 ± 0.067 mPa·s
  mass density: 823.6 ± 0.9 kg/m3
303.16 K, 16020 kPa
  viscosity: 6.004 ± 0.069 mPa·s
  mass density: 825.5 ± 0.9 kg/m3
303.16 K, 19020 kPa
  viscosity: 6.179 ± 0.071 mPa·s
  mass density: 827.3 ± 0.9 kg/m3
303.16 K, 22000 kPa
  viscosity: 6.353 ± 0.073 mPa·s
  mass density: 829.2 ± 0.9 kg/m3
303.16 K, 24980 kPa
  viscosity: 6.527 ± 0.075 mPa·s
  mass density: 830.9 ± 0.9 kg/m3
303.16 K, 27980 kPa
  viscosity: 6.703 ± 0.077 mPa·s
  mass density: 832.5 ± 0.9 kg/m3
303.16 K, 30010 kPa
  viscosity: 6.822 ± 0.079 mPa·s
  mass density: 833.7 ± 0.9 kg/m3
313.15 K, 2000 kPa
  viscosity: 3.763 ± 0.044 mPa·s
  mass density: 809.2 ± 0.8 kg/m3
313.15 K, 4000 kPa
  viscosity: 3.848 ± 0.045 mPa·s
  mass density: 810.6 ± 0.9 kg/m3
313.15 K, 5980 kPa
  viscosity: 3.932 ± 0.046 mPa·s
  mass density: 811.9 ± 0.9 kg/m3
313.15 K, 7980 kPa
  viscosity: 4.017 ± 0.047 mPa·s
  mass density: 813.3 ± 0.9 kg/m3
313.15 K, 9970 kPa
  viscosity: 4.101 ± 0.048 mPa·s
  mass density: 814.6 ± 0.9 kg/m3
313.15 K, 13030 kPa
  viscosity: 4.231 ± 0.049 mPa·s
  mass density: 816.5 ± 0.9 kg/m3
313.15 K, 16020 kPa
  viscosity: 4.358 ± 0.051 mPa·s
  mass density: 818.4 ± 0.9 kg/m3
313.15 K, 19000 kPa
  viscosity: 4.484 ± 0.052 mPa·s
  mass density: 820.4 ± 0.9 kg/m3
313.15 K, 22020 kPa
  viscosity: 4.613 ± 0.054 mPa·s
  mass density: 822.2 ± 0.9 kg/m3
313.15 K, 25010 kPa
  viscosity: 4.739 ± 0.055 mPa·s
  mass density: 824 ± 0.9 kg/m3
313.15 K, 27980 kPa
  viscosity: 4.865 ± 0.057 mPa·s
  mass density: 825.7 ± 0.9 kg/m3
313.15 K, 30010 kPa
  viscosity: 4.952 ± 0.058 mPa·s
  mass density: 826.9 ± 0.9 kg/m3
323.15 K, 1990 kPa
  viscosity: 2.748 ± 0.032 mPa·s
  mass density: 802.1 ± 0.8 kg/m3
323.15 K, 4010 kPa
  viscosity: 2.812 ± 0.033 mPa·s
  mass density: 803.4 ± 0.8 kg/m3
323.15 K, 5990 kPa
  viscosity: 2.876 ± 0.034 mPa·s
  mass density: 804.8 ± 0.9 kg/m3
323.15 K, 8010 kPa
  viscosity: 2.94 ± 0.034 mPa·s
  mass density: 806.2 ± 0.9 kg/m3
323.15 K, 10010 kPa
  viscosity: 2.997 ± 0.035 mPa·s
  mass density: 807.6 ± 0.9 kg/m3
323.15 K, 13000 kPa
  viscosity: 3.088 ± 0.036 mPa·s
  mass density: 809.7 ± 0.9 kg/m3
323.15 K, 16000 kPa
  viscosity: 3.179 ± 0.037 mPa·s
  mass density: 811.8 ± 0.9 kg/m3
323.15 K, 18990 kPa
  viscosity: 3.266 ± 0.038 mPa·s
  mass density: 813.7 ± 0.9 kg/m3
323.15 K, 22000 kPa
  viscosity: 3.358 ± 0.039 mPa·s
  mass density: 815.6 ± 0.9 kg/m3
323.15 K, 25000 kPa
  viscosity: 3.451 ± 0.04 mPa·s
  mass density: 817.4 ± 0.9 kg/m3
323.15 K, 28000 kPa
  viscosity: 3.542 ± 0.042 mPa·s
  mass density: 819.3 ± 0.9 kg/m3
323.15 K, 30000 kPa
  viscosity: 3.607 ± 0.042 mPa·s
  mass density: 820.5 ± 0.9 kg/m3
